In patent US7893266B2, “Detection of cancer cells in vitro using sigma-2 receptor ligands as radiotracers” (Washington University, priority 2003, dated 2011):
Like-named read-outs stand apart in the source and are kept apart here.

Columns and labels:
[1] = molecular target: T1, σ2 receptors in the breast tumors (Mus musculus, UniProt Q8VD00); test: In vivo blocking studies with YUN 143 in tumor-bearing mice; conditions: blocking agent YUN 143 (1 mg/kg, i.v.); time point of highest % I.D./gram tumor
T1 construct: mature Balb/c mice that were implanted with EMT-6 mammary tumors; from tissue; host or cells: EMT-6 mammary tumours in Balb/c mice, in vivo
T1 sequence (Q8VD00 1-176): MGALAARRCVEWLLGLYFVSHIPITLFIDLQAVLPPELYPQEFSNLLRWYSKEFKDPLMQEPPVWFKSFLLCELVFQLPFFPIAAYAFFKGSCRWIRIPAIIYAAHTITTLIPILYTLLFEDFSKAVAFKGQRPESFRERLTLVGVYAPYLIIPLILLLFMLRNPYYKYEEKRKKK
From the text: The blocking agent was YUN 143, which has a high affinity for σ1 and σ2 receptors. Animals were sacrificed at the time point displaying the highest % I.D./gram tumor.
The inventors then conducted blocking studies in order to confirm that the radiotracer labeled σ2 receptors in the breast tumors. […] We have previously reported that [^18F]YUN 143 labels σ1 and σ2 receptors in breast tumor xenografts (Mach et al., 2001).

[2] = Biodistribution in EMT-6 BALB/C mice; assay type: in vivo; conditions: Balb/c, mouse, intravenous
[3] = tested on: EMT-6 mammary tumors; test: Biodistribution in EMT-6 BALB/C mice; assay type: in vivo
[4] = tested on: EMT-6 breast tumor xenograft; test: MicroPET imaging studies in mice bearing EMT-6 breast tumor; assay type: in vivo, Balb-c mice
Protocol: The no-carrier-added (NCA) study is on the left and the sigma receptor blocking study (1 mg/kg, i.v. YUN-143) is shown on the right.
This compound was studied in mature Balb/C mice that were implanted with EMT-6 mammary tumors. The mice were implanted in the nape of the neck 7 days prior to the study. The biodistribution study consisted of three groups: 1 hr low dose (≈6 μCi), 4 hr low dose and a 4 hr high dose (≈150 μCi). The % ID/g at 1 hr for tumor, brain, fat, blood and liver were 4.0±0.4, 0.25±0.02, 1.1±0.4, 2.1±0.3 and 5.4±0.4, respectively. At 4 hr for the low dose animals the values decreased to 1.2±0.2, 0.15±0.02, 0.3±0.2, 0.82±0.08 and 1.3±0.2, respectively. […] The activity injected into the high dose animals was enough to perform microPET® imaging studies. […] This initial study has shown that this σ2 receptor compound has a high uptake into EMT-6 mammary tumors and can be imaged non-invasively. (MicroPET® is a dedicated PET scanner designed for high resolution imaging of small laboratory animals. It is available from Concorde Microsystems, Inc. 10427 Cogdill Rd, Suite 500 Knoxville, Tenn. 37932 USA.)
MicroPET® Imaging Studies—The inventors conducted microPET® imaging studies with [^76Br]6 in Balb-c mice bearing EMT-6 breast tumor xenografts to model a living mammal afflicted with cancer.

[5] = kidney, read-out: % ID per gram kidney
[6] = liver, read-out: % ID per gram liver
[7] = spleen, read-out: % ID per gram spleen

## COc1cc2c(cc1OC)CN(CCCCNC(=O)c1cc([76Br])cc(OC)c1OC)CC2 [[^76Br]6]
[1]
  in vivo blocking study result: consistent with the labeling of σ2 receptors in vivo
[2]; [5]
  tissue uptake at 2 h: 1.85 ± 0.54 %ID/g
  tissue uptake at 4 h: 0.57 ± 0.12 %ID/g
[2]; [6]
  tissue uptake at 2 h: 1.67 ± 0.1 %ID/g
  tissue uptake at 4 h: 0.71 ± 0.08 %ID/g
[2]; lung, read-out: % ID per gram lung
  tissue uptake at 4 h: 0.29 ± 0.03 %ID/g
[2]; spleen, 5 min, read-out: % ID per gram spleen
  tissue uptake at 5 min: 12.5 ± 1.46 %ID/g
[2]; spleen, 30 min, read-out: % ID per gram spleen
  tissue uptake at 30 min: 6.91 ± 1.22 %ID/g
[2]; spleen, 1 hour, read-out: % ID per gram spleen
  tissue uptake at 1 h: 2.61 ± 0.62 %ID/g
[2]; [7]
  tissue uptake at 2 h: 0.6 ± 0.03 %ID/g
  tissue uptake at 4 h: 0.2 ± 0.03 %ID/g
[3]; 5 min
  ratio Tumor:blood: 2.25 ± 0.28
  ratio Tumor:fat: 1.30 ± 0.24
  ratio Tumor:heart: 0.65 ± 0.07
  ratio Tumor:lung: 0.19 ± 0.02
  ratio Tumor:muscle: 1.32 ± 0.16
  % ID per gram blood: 2.12 ± 0.20 % ID per gram
  % ID per gram bone: 3.10 ± 0.67 % ID per gram
  % ID per gram brain: 1.60 ± 0.15 % ID per gram
  % ID per gram fat: 3.78 ± 0.97 % ID per gram
  % ID per gram heart: 7.31 ± 0.70 % ID per gram
  % ID per gram kidney: 31.20 ± 2.92 % ID per gram
  % ID per gram liver: 10.99 ± 0.29 % ID per gram
  % ID per gram lung: 24.64 ± 2.74 % ID per gram
  % ID per gram muscle: 3.62 ± 0.27 % ID per gram
  % ID per gram tumor: 4.78 ± 0.78 % ID per gram
[3]; 30 min
  ratio Tumor:blood: 2.41 ± 0.08
  ratio Tumor:fat: 2.35 ± 0.34
  ratio Tumor:heart: 2.48 ± 0.17
  ratio Tumor:lung: 0.93 ± 0.09
  ratio Tumor:muscle: 3.70 ± 1.06
  % ID per gram blood: 2.20 ± 0.24 % ID per gram
  % ID per gram bone: 2.76 ± 0.58 % ID per gram
  % ID per gram brain: 0.41 ± 0.06 % ID per gram
  % ID per gram fat: 2.27 ± 0.16 % ID per gram
  % ID per gram heart: 2.15 ± 0.30 % ID per gram
  % ID per gram kidney: 18.51 ± 2.66 % ID per gram
  % ID per gram liver: 8.85 ± 0.52 % ID per gram
  % ID per gram lung: 5.81 ± 1.12 % ID per gram
  % ID per gram muscle: 1.54 ± 0.49 % ID per gram
  % ID per gram tumor: 5.31 ± 0.62 % ID per gram
[3]; 1 hour
  ratio Tumor:blood: 2.53 ± 0.54
  ratio Tumor:fat: 5.09 ± 1.39
  ratio Tumor:heart: 3.72 ± 0.72
  ratio Tumor:lung: 1.64 ± 0.30
  ratio Tumor:muscle: 6.76 ± 2.09
  % ID per gram blood: 1.60 ± 0.22 % ID per gram
  % ID per gram bone: 1.38 ± 0.09 % ID per gram
  % ID per gram brain: 0.17 ± 0.02 % ID per gram
  % ID per gram fat: 0.81 ± 0.16 % ID per gram
  % ID per gram heart: 1.08 ± 0.07 % ID per gram
  % ID per gram kidney: 10.81 ± 1.72 % ID per gram
  % ID per gram liver: 4.58 ± 0.36 % ID per gram
  % ID per gram lung: 2.45 ± 0.17 % ID per gram
  % ID per gram muscle: 0.61 ± 0.11 % ID per gram
  % ID per gram tumor: 3.98 ± 0.58 % ID per gram
[3]; 2 hour
  ratio Tumor:blood: 3.79 ± 0.99
  ratio Tumor:fat: 7.97 ± 1.95
  ratio Tumor:heart: 5.77 ± 0.60
  ratio Tumor:lung: 2.30 ± 0.13
  ratio Tumor:muscle: 8.81 ± 0.91
  % ID per gram blood: 0.46 ± 0.07 % ID per gram
  % ID per gram bone: 0.56 ± 0.20 % ID per gram
  % ID per gram brain: 0.05 ± 0.00 % ID per gram
  % ID per gram fat: 0.22 ± 0.05 % ID per gram
  % ID per gram heart: 0.30 ± 0.03 % ID per gram
  % ID per gram lung: 0.74 ± 0.04 % ID per gram
  % ID per gram muscle: 0.20 ± 0.03 % ID per gram
  % ID per gram tumor: 1.71 ± 0.17 % ID per gram
[3]; 4 hour
  ratio Tumor:blood: 3.17 ± 0.58
  ratio Tumor:fat: 20.69 ± 10.77
  ratio Tumor:heart: 6.24 ± 1.28
  ratio Tumor:lung: 2.36 ± 0.46
  ratio Tumor:muscle: 9.48 ± 2.14
  % ID per gram blood: 0.21 ± 0.03 % ID per gram
  % ID per gram bone: 0.12 ± 0.03 % ID per gram
  % ID per gram brain: 0.03 ± 0.00 % ID per gram
  % ID per gram fat: 0.04 ± 0.02 % ID per gram
  % ID per gram heart: 0.11 ± 0.02 % ID per gram
  % ID per gram muscle: 0.07 ± 0.01 % ID per gram
  % ID per gram tumor: 0.68 ± 0.15 % ID per gram
[4]; high dose animals, 1 and 2 hr, three animals
  microPET imaging: identification of tumors: tumors were clearly identified
[4]; no-carrier-added versus blocking with YUN-143 1 mg/kg i.v.
  microPET imaging: tumor uptake, NCA study versus sigma receptor blocking study: high uptake of the radiotracer in the NCA study (left image), which can be blocked with a known sigma receptor ligand
